Source: patent US20050250765A1, “Diazepinones as antiviral agents” (priority 2000, published 2005)

tested on: not listed separately; experiment: Metabolic stability, in vitro half-life in human liver microsomes; format: in vitro ADME; conditions: liver microsomes (pooled), 30 μM compound, 0.5 mg/mL pooled microsomal protein, 1.0 mM NADPH, 37° C., pH 7.4, read-out: t½ (min) Human Liver Microsome Preparation
Description: Compounds were individually incubated (30 μM, dissolved in DMSO) with human and mouse liver microsomes. The incubation consisted of 50 mM KPO4, pH 7.4 buffer with 0.5 mg/mL pooled microsomal protein, 30 μM compound, and 1.0 mM NADPH. The total incubate volume was 0.5 mL. The incubate solution was pro-incubated for 3 minutes at 37° C. and the reaction initiated by the addition of NADPH. At 0, 10, 20, and 40 minutes 50 μL aliquots were removed and quenched with 100 μL acetonitrile and 25 μL of internal standard. Standard curves of each compound were prepared in a simialr manner at a concentration range of 7.5 μM to 45 μM. Th in vitro metabolic half-life determinations of these preparations were determined from the concentration vs. time plots using WinNonlin software. The in vitro half-life data represents the extent of oxidative and hydrolytic metabolism.

half-life at 30 μM [min] | Compound
66 | COc1ccc2sc3c(c2c1)NCCNC3=O [B, 3-Methoxy-5,6,7,8-tetrahydro-10-thia-5,8-diaza-benzo[a]azulen-9-one]
> 200 | O=C1NCCNc2c1ccc1cnccc21 [F, 8,9,10,11-Tetrahydro-3,8,11-triaza-cyclohepta[a]naphthalen-7-one]
> 200 | COc1cccc(CN2CCNC(=O)c3ccc4cnccc4c32)c1 [FF4, 11-(3-Methoxy-benzyl)-8,9,10,11-tetrahydro-3,8,11-triaza-cyclohepta[a]naphthalen-7-one]
200 | CCN1CCNC(=O)c2oc3ccc(OC)cc3c21 [H, 5-Ethyl-3-methoxy-5,6,7,8-tetrahydro-10-oxa-5,8-diaza-benzo[a]azulen-9-one]
150 | COc1ccc(CN2CC(C)(C)NC(=O)c3sc4ccc(OC)cc4c32)cc1 [K, 3-Methoxy-5-(4-methoxy-benzyl)-7,7-dimethyl-5,6,7,8-tetrahydro-10-thia-5,8-diaza-benzo[a]azulen-9-one]
133 | CCOc1ccc2sc3c(c2c1)NCC(C)(C)NC3=O [NN, 3-Ethoxy-7,7-dimethyl-5,6,7,8-tetrahydro-10-thia-5,8-diaza-benzo[a]azulen-9-one]

tested on: Vero cells; experiment: not given; conditions: African green monkey, 2 day

Compound | CC50 [µM]
COc1cccc(CN2CC(C)NC(=O)c3sc4ccc(OC)cc4c32)c1 (centres unmarked) [EE2, 3-Methoxy-5-(3-methoxy-benzyl)-7-methyl-5,6,7,8-tetrahydro-10-thia-5,8-diaza-benzo[a]azulen-9-one] | 3.4
COc1cccc(CN2CC(C)NC(=O)c3sc4ccc(OC)cc4c32)c1 (centres unmarked) [O, 3-Methoxy-5-(3-methoxy-benzyl)-7-methyl-5,6,7,8-tetrahydro-10-thia-5,8-diaza-benzo[a]azulen-9-one] | 18

tested on: not listed separately; experiment: in vitro; conditions: African green monkey, TC50

Compound | CC50 at 2 day [µM]
COc1ccc2sc3c(c2c1)N(Cc1ccc(C#N)cc1)CCN(C)C3=O [AA4, 4-(3-Methoxy-8-methyl-9-oxo-6,7,8,9-tetrahydro-10-thia-5,8-diaza-benzo[a]azulen-5-ylmethyl)-benzonitrile] | 100
COc1ccc2sc3c(c2c1)NCCNC3=O [B, 3-Methoxy-5,6,7,8-tetrahydro-10-thia-5,8-diaza-benzo[a]azulen-9-one] | 4.5
COc1cccc(CN2CCNC(=O)c3sc4ccc(OC)cc4c32)c1 [C, 3-Methoxy-5-(3-methoxy-benzyl)-5,6,7,8-tetrahydro-10-thia-5,8-diaza-benzo[a]azulen-9-one] | 10
C=C(C)CN1CCNC(=O)c2sc3ccc(F)cc3c21 [CC5, 3-Fluoro-5-(2-methyl-allyl)-5,6,7,8-tetrahydro-10-thia-5,8-diaza-benz[a]azulen-9-one] | 18.5
CCCN1CCNC(=O)c2sc3ccc(OCC)cc3c21 [D, 3-Ethoxy-5-propyl-5,6,7,8-tetrahydro-10-thia-5,8-diaza-benzo[a]azulen-9-one] | 100
CCCCN1CCNC(=O)c2sc3ccc([N+](=O)[O-])cc3c21 [DD, 5-n-Butyl-3-nitro-5,6,7,8-tetrahydro-10-thia-5,8-diaza-benz[a]azulen-9-one] | 12.9
O=C1NCCNc2c1ccc1cnccc21 [F, 8,9,10,11-Tetrahydro-3,8,11-triaza-cyclohepta[a]naphthalen-7-one] | 1.7
CN1CCNC(=O)c2ccc3cnccc3c21 [GG4, 11-Methyl-8,9,10,11-tetrahydro-3,8,11-triaza-cyclohepta[a]naphthalen-7-one] | 11.5
C=C(Cl)CN1CCNC(=O)c2sc3ccc(OC)cc3c21 [MM3, 5-(2-Chloro-allyl)-3-methoxy-5,6,7,8-tetrahydro-10-thia-5,8-diaza-benzo[a]azulen-9-one] | 3
COc1ccc2sc3c(c2c1)NC(Cc1ccccc1)CNC3=O (centres unmarked) [PP2, 6-Benzyl-3-methoxy-5,6,7,8-tetrahydro-10-thia-5,8-diaza-benzo[a]azulen-9-one] | 1.1
C=C(C)CN1CCNC(=O)c2sc3ccc([N+](=O)[O-])cc3c21 [Q, 5-(2-Methyl-allyl)-3-nitro-5,6,7,8-tetrahydro-10-thia-5,8-diaza-benz[a]azulen-9-one] | 6
COc1ccc2sc3c(c2c1)N(Cc1ccc([N+](=O)[O-])cc1)CCNC3=O [SS3, 3-Methoxy-5-(4-nitro-benzyl)-5,6,7,8-tetrahydro-10-thia-5,8-diaza-benzo[a]azulen-9-one] | 83
CCCN1CC(C)(C)NC(=O)c2sc3ccc(OC)cc3c21 [TT, 3-Methoxy-7,7-dimethyl-5-propyl-5,6,7,8-tetrahydro-10-thia-5,8-diaza-benzo[a]azulen-9-one] | 0.4
C=CCN1CCNC(=O)c2sc3ccc([N+](=O)[O-])cc3c21 [U, 5-Allyl-3-nitro-5,6,7,8-tetrahydro-10-thia-5,8-diaza-benz[a]azulen-9-one] | 8.1
COc1cccc(CN2CCNC(=O)c3sc4ccc([N+](=O)[O-])cc4c32)c1 [V, 5-(3-Methoxy-benzyl)-3-nitro-5,6,7,8-tetrahydro-10-thia-5,8-diaza-benz[a]azulen-9-one] | 1.3
COc1ccc2sc3c(c2c1)N(Cc1ccccc1C)CCNC3=O [WW3, 3-Methoxy-5-(2-methyl-benzyl)-5,6,7,8-tetrahydro-10-thia-5,8-diaza-benzo[a]azulen-9-one] | 10.2
COc1ccc2oc3c(c2c1)N(CCC(C)C)CCNC3=O [YY5, 3-Methoxy-5-(3-methyl-butyl)-5,6,7,8-tetrahydro-10-oxa-5,8-diaza-benzo[a]azulen-9-one] | 10

tested on: Vero cells; experiment: not given; conditions: read-out: TC50; 2-day XTT, no virus

Compound | CC50 [µM]
5-(3-Methoxy-benzyl)-3-nitro-5,6,7,8-tetrahydro-10-thia-5,8-diaza-benz[a]azulen-9-one [W] | 100
